One may read the inhibition as the drop in the measured response relative to a control, in per cent. Read a high inhibition as a response far below the control. In general, IC50 refers to the concentration at which inhibition is half-maximal.

The values that follow come from patent US8952039B2, “Pyridone derivatives and their use in the treatment, ameloriation or prevention of a viral disease” (priority 2013, dated 2015).

One experiment deals with T1, influenza A virus (IAV) PA-Nter fragment (amino acids 1-209) (Influenza A virus, UniProt P31343).
T1 construct: PA-Nter fragment (amino acids 1-209); made in house
As to the kind of experiment: FRET endonuclease activity assay. In kind it is biochemical. The following applies: 10 μM compound; % reduction of v0 compared to untreated.
Compound `CC(C)NC(=O)c1c(O)c(=O)cc(CNS(=O)(=O)c2ccccc2)n1C` returned an inhibition at 10 µM of 13%. `CC(C)NC(=O)c1c(O)c(=O)cc(CNS(=O)(=O)c2cccc(Cl)c2)n1C` showed an inhibition at 10 µM of 13%. For the compound `CC(C)NC(=O)c1c(O)c(=O)cc(CNS(=O)(=O)c2ccc(Cl)cc2)n1C`, at 10 µM the inhibition was 11%.

The compound `Cc1cccc(S(=O)(=O)NCc2cc(=O)c(O)c(C(=O)NC(C)C)n2C)c1` yielded an inhibition at 10 µM of 36%. In turn, `Cc1ccc(S(=O)(=O)NCc2cc(=O)c(O)c(C(=O)NC(C)C)n2C)cc1` returned an inhibition at 10 µM of 8%.

Turning to `CC(C)NC(=O)c1c(O)c(=O)ccn1C(C)Cc1ccccc1` (centres unmarked), the inhibition at 10 µM came out at 7%.

In the case of `CNC(=O)c1c(O)c(=O)cc(Cc2ccccc2-c2ccccc2)n1C`, the inhibition at 10 µM turned out to be 10%. `CC(C)NC(=O)c1c(O)c(=O)cc(Cc2ccccc2-c2ccccc2)n1C` gave an inhibition at 10 µM of 13%. Still for that read-out and setting: the figure for `Cn1c(Cc2ccccc2-c2ccccc2)cc(=O)c(O)c1C(N)=O` is 17%. On the same count and under the same terms, with `CNC(=O)c1c(O)c(=O)cc(CNS(=O)(=O)c2ccccc2)n1C` the figure was 13%; with `CNC(=O)c1c(O)c(=O)cc(CNS(=O)(=O)c2ccc(C)cc2)n1C`, 10%; with `CNC(=O)c1c(O)c(=O)cc(CNS(=O)(=O)c2cccc(C)c2)n1C`, 33%. Regarding `CNC(=O)c1c(O)c(=O)cc(CNS(=O)(=O)c2ccc(Cl)cc2)n1C`, the inhibition at 10 µM worked out at 7%. On the same count and under the same terms, the figure for `CNC(=O)c1c(O)c(=O)cc(CNS(=O)(=O)c2cccc(Cl)c2)n1C` is 23%.

The same experiment, now with this note: calculated from initial reaction velocities (v0); 0.5 μM PA-Nter, 1.6 μM RNA substrate.
Take `Cn1c(CNS(=O)(=O)c2ccccc2)cc(=O)c(O)c1C(=O)O`: the IC50 is 560 nM.

Turning to `Cn1c(CNS(=O)(=O)c2ccc(Cl)cc2)cc(=O)c(O)c1C(=O)O`, the IC50 was 1140 nM. On the same count and under the same terms, the figure for `Cn1c(CNS(=O)(=O)c2cccc(Cl)c2)cc(=O)c(O)c1C(=O)O` is 150 nM; for `Cn1c(CNS(=O)(=O)c2ccccc2Cl)cc(=O)c(O)c1C(=O)O` it is 110 nM; for `Cc1ccc(S(=O)(=O)NCc2cc(=O)c(O)c(C(=O)O)n2C)cc1` it is 970 nM. On to `Cc1ccccc1S(=O)(=O)NCc1cc(=O)c(O)c(C(=O)O)n1C`, for which the half-inhibitory concentration (IC50) is 280 nM. Still for that read-out and setting: with `Cc1cccc(S(=O)(=O)NCc2cc(=O)c(O)c(C(=O)O)n2C)c1` the figure was 530 nM; with `CC(C)NC(=O)c1c(O)c(=O)cc(CNS(=O)(=O)c2ccccc2Cl)n1C`, 6300 nM. Same read-out and setting: with `Cc1ccccc1S(=O)(=O)NCc1cc(=O)c(O)c(C(=O)NC(C)C)n1C` the figure was 4600 nM.

For the compound `Cn1c(Cc2ccccc2-c2ccccc2)cc(=O)c(O)c1C(=O)O`, the IC50 is 400 nM. Turning to `CNC(=O)c1c(O)c(=O)cc(CNS(=O)(=O)c2ccccc2C)n1C`, the IC50 was 12200 nM.

For `CNC(=O)c1c(O)c(=O)cc(CNS(=O)(=O)c2ccccc2Cl)n1C`, the IC50 was 9000 nM.
